The nature of data set [1]: Stability: oxidized glutathione and reduced ascorbic acid after storage. Format: physicochemical. The conditions noted are these: ascorbic acid only, pH not given; Ambient; stored at 5° C. for 4 weeks. How it is done: The amount of glutathione and ascorbic acid oxidiation were determined for Composition 1 at pH 5.5, 6.0, and 6.5. Oxidized glutathione is associated with the generation of protein-carbonyls via glutathionlyation, which occurs when oxidized glutathione dissociates and attaches to proteins. The % oxidized glutathione (% GSSG) was determined after 4 weeks of storage of Composition 1 at pH 5.5, 6.0, and 6.5 under N2-sparged and ambient conditions. Additionally, when ascorbic acid is oxidized into dehydroascorbate (DHA), DHA can break down and result in the formation of protein adducts in process called ascorbylation (Simpson et al., Biochim biophys Acta 2000; 1501:12-24). The % reduced ascorbic acid maintained in Composition 1 (% ASC) was determined after 4 weeks of storage of Composition 1 at pH 5.5, 6.0, and 6.5 under N2-sparged (anaerobic) and ambient conditions. Specifically, nitrogen-sparged samples were mixed under anaerobic conditions sparged with nitrogen, and the samples were packaged using nitrogen bubbling. Ambient samples were mixed under room air conditions and were not bubbled with nitrogen. The formulations were stored at 5° C. for 4 weeks, and the percent of oxidized glutathione (GSSG) and ascorbic acid (ASC) was measured for each sample according to standard techniques.

For data set [2], the system named is Pa UAB-M-2 (mucoidy P. aeruginosa clinical isolate from lung). The data set can be described thus: MIC against Pa UAB-M-2. Type of data set: cell-based, Pseudomonas aeruginosa. As to conditions: Anaerobic (+nitrate), 12 hrs. How it is done:
(§1) The MICs of Composition 1 (glutathione, ascorbic acid, and HCO3); glutathione and ascorbic acid; and HCO3 were tested against clinical isolates, including Burkholderia cepacia, Pseudomonas aeruginosa (Schroeter) Migula (ATCC 27853), Pseudomonas aeruginosa (Schroeter) Migula (ATCC 9027), Pseudomonas aeruginosa (Schroeter) Migula (ATCC BAA-2114), Klebsiella pneumonia, methicillin resistant Staphylococcus aureus; laboratory strains of Moraxella catarrhalis, Stenotrophomonas maltophilia, Acinetobacter baumannii; and eight samples of mucoid and nonmucoid Pseudomonas aeruginosa clinical isolates from human lung. The MIC for laboratory clinical isolate Pseudomonas aeruginosa (Schroeter) Migula (ATCC BAA-47 (PAO1)) was also tested. The MICs were determined under anaerobic conditions on media supplemented with nitrate, under aerobic conditions supplemented with nitrate, or under ambient conditions.
(§2) The clinical isolates were inoculated in duplicate on agar plates overnight under anaerobic conditions at 36° C.±1.0° C. in a 96-well plate. Laboratory isolates of Burkholderia cepacia were also grown in duplicate overnight under aerobic conditions at 36° C.±1.0° C. in a 96-well plate. […] MICs were determined via visual inspection and OD620.

In data set [3] the test system is Pseudomonas aeruginosa (Schroeter) Migula (ATCC BAA-47 (PAO1)). The data set can be described thus: MIC against Pa BAA-47 (PAO1). Type of data set: cell-based. The conditions noted are these: Anaerobic (+nitrate), 12 hrs. How it is done: as §1, §2
The subject of a further data set is MRSA UAB-1. Briefly: MIC against MRSA UAB-1. Format: cell-based, Staphylococcus aureus. The conditions noted are these: Anaerobic (+nitrate), 12 hrs. How it is done: as §1, §2
For data set [4], the system named is Pa UAB-NM-3 (nonmucoidy P. aeruginosa clinical isolate from lung). Briefly: MIC against Pa UAB-NM-3. Format: cell-based, Pseudomonas aeruginosa. The conditions noted are these: Anaerobic (+nitrate), 12 hrs. How it is done:
as §1, §2

A further data set has as its system MRSA UAB-3. Briefly: MIC against MRSA UAB-3. Format: cell-based, Staphylococcus aureus. The conditions noted are these: Anaerobic (+nitrate), 12 hrs. How it is done:
as §1, §2

Data set [5] concerns Pa UAB-NM-1 (nonmucoidy P. aeruginosa clinical isolate from lung). The data set can be described thus: MIC against Pa UAB-NM-1. Format: cell-based, Pseudomonas aeruginosa. The conditions noted are these: Anaerobic (+nitrate), 12 hrs. The protocol: as §1, §2
The subject of data set [6] is Pa UAB-NM-5 (nonmucoidy P. aeruginosa clinical isolate from lung). Briefly: MIC against Pa UAB-NM-5. Type of data set: cell-based, Pseudomonas aeruginosa. The conditions noted are these: Anaerobic (+nitrate), 12 hrs. The protocol:
as §1, §2

`O=C1O[C@H]([C@@H](O)CO)C(O)=C1O` [Ascorbic Acid Only, ascorbic acid]: the “% ASC (reduced ascorbic acid maintained)” value in data set [1] amounted to 77.88%.
`O=C([O-])O.[Na+]` [HCO3, sodium bicarbonate]: the MIC is recorded as 12.5%(12 in data set [2]; 12.5% (12 in data set [3]; 25% (12 with MRSA UAB-1; 12.5% (12 in data set [4]; 25% (12 in the data set with MRSA UAB-3; 12.5%(12 in data set [5]. In addition, in data set [6], the MIC was 12.5% (12.

These data come from US12427180B2, “Treatment of respiratory tract diseases and infections with ascorbic acid compositions” (RENOVION, INC., priority 2016, dated 2025).
